For series [1], the target named is T1, CYP3A4 (Homo sapiens, UniProt P08684). The series is described as follows: Inactivation kinetics of CYP3A4 (literature data and reanalysis).
Description: (§1) Firstly, the remaining enzyme activities were extracted from the data sets for all inactivator concentrations and plotted against the respective preincubation times used. Secondly, the resulting decay curves for different inactivator concentrations were fitted to mono-exponential functions, thus yielding observed inactivation rates kobs for all inactivator concentrations.
Another series has as its target T2, human HDAC8 (Homo sapiens, UniProt Q9BY41).
T2 sequence (Q9BY41 1-377): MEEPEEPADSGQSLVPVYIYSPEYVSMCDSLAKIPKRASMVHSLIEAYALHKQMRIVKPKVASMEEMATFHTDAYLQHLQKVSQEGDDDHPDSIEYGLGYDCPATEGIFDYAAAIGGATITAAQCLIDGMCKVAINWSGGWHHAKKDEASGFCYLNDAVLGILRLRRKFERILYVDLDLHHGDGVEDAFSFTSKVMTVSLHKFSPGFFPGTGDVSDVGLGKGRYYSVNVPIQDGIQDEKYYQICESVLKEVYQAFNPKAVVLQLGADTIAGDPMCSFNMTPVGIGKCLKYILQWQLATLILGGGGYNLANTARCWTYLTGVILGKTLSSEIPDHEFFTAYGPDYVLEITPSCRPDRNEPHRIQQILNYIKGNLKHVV
The series is described as follows: Time-dependent fluorometric HDAC8 enzyme activity assay (dose-response curves after different pre-incubation times). The following applies: for Binding / inhibition mechanism classification: from time-dependent dose-response curves and kobs vs [I] plot; for kinact: read-out: kinact (min^−1); for kinact/KI: read-out: kinact/KI (M^−1s^−1).

Series [2] deals with T3, CYP2C8 (Homo sapiens, UniProt P10632).
T3 sequence (P10632 1-490): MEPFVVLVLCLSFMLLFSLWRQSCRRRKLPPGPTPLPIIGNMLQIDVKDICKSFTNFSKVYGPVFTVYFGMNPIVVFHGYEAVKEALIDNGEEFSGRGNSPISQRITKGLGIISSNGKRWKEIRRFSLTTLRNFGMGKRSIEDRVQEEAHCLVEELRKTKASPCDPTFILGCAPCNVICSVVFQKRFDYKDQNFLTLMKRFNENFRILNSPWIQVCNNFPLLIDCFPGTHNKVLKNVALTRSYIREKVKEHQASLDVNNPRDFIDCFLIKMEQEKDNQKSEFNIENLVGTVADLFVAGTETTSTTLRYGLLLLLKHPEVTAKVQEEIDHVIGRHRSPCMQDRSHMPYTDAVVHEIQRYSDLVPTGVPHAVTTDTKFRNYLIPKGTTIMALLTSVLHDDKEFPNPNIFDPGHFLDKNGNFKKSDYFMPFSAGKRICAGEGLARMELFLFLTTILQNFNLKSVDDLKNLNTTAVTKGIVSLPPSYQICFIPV
The series is described as follows: Inactivation kinetics of CYP2C8 (literature data and reanalysis).
Description: as §1

Series [3] has as its target T1, CYP3A4. To be noted: CYP3A4 inactivation ref 38, cited from earlier work.
Details of series [4]: method as in PMID 5970483. The following applies: pH of 7.0 ref 48; cited from earlier work.
Details of series [5]: method as in PMID 5970483. To be noted: pH 8 ref 48; cited from earlier work.
Series [6] has as its target T3, CYP2C8. To be noted: CYP2C8 inactivation ref 36, cited from earlier work.
Series [7] relates to HDAC8. The following applies: read-out: IC50 (µM) (Lit.), cited from earlier work.
In series [8] the target is HDAC8. Further details: method as in PMID 24882269. The following applies: binding affinity to HDAC8 ref 41; cited from earlier work.
For the next series, the system named is HIV protease. Further details: method as in PMID 17928344. The following applies: HIV protease ref 18; cited from earlier work.

Each structure is given as a SMILES string. “Also recorded” adds a separate entry of the source. Read-outs that look alike come from different tables or passages of the source.

For orientation: kinact means the rate constant of inactivation at saturating inhibitor. The IC50 is the midpoint of a concentration-inhibition curve. In general, Kd refers to the concentration at which binding is half-saturated.

T1 sequence (P08684 2-503): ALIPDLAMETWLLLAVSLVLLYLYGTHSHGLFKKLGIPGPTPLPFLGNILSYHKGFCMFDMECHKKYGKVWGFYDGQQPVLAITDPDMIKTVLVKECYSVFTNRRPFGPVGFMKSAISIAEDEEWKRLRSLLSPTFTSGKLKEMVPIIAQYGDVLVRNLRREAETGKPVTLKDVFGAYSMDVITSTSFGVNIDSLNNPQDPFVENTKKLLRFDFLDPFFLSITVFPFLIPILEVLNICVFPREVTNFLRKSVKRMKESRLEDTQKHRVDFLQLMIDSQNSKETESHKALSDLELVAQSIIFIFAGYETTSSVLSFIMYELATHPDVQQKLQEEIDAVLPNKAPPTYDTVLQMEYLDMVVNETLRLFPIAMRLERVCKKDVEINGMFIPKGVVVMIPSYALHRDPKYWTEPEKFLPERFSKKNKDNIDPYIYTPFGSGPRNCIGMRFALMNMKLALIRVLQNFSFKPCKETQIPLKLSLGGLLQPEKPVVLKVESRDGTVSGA
Description for human HDAC8: HDAC8 activity was determined using a fluorometric assay, as previously described [44]. […] The enzyme reaction was initiated by adding 20 μM of the substrate Boc-Lys(TFA)-AMC (Bachem, Bubendorf, Switzerland). […] The measurements were carried out using a fluorescence microplate reader (PHERAstar FS, BMG LABTECH, Ortenberg, Germany) with fluorescence excitation at 360 nm and emission at 460 nm. IC50 values were calculated using GraphPad Prism 9 by generating dose–response curves and fitting them to a 4-parameter fit model [50]. The results represent the mean ± SD of three independent experiments.
The binding constant Ki for the 1-step binding mechanism in Equation (5) was calculated as follows:(5) Ki=koff/kon
A plot of kobs versus inhibitor or inactivator concentration ([I]) allows distinguishing between 1-step or 2-step behavior: a straight line indicates 1-step, and a saturation curve indicates a 2-step mechanism. Kinetic parameters were obtained from fitting kobs vs. [I] data to the following functions for the indicated mechanism:
Reversible 1-step binding (see Equation (1)):(8) kobs=kon[I]+koff where kon and koff are association and dissociation rate constants, respectively.
Reversible 2-step binding (see Equation (2)):(9) kobs=k−r+kr/1+IC50/[I] where kr and k−r are forward and reverse isomerization rate constants of the second step.
Irreversible 1-step inactivation (see Equation (3)):(10) kobs=kinact/KI[I] where kinact is the inactivation rate, KI is [I], and kinact is the half-maximum.
Irreversible 2-step inactivation (see Equation (4)):(11) kobs=kinact[I]/KI +[I]

With `CC(C)=CCC/C(C)=C/COc1c2ccoc2cc2oc(=O)ccc12` [Bergamottin], on CYP3A4 [1] (human), the Ki was 12 ± 5 µM and the kinact is 0.0065 s⁻¹.

As to `O=c1c2ccccc2[se]n1-c1ccccc1` [Ebselen, reference compound], at human HDAC8, the IC50 amounted to 80 ± 30 nM, the “Binding / inhibition mechanism classification” value is listed as “rapidly inactivated HDAC8; also recorded: fast covalent inactivators” and the kinact was greater than 2 min⁻¹.

For the compound `C#C[C@]1(O)CC[C@H]2[C@@H]3CCc4cc(O)ccc4[C@H]3CC[C@@]21C` [Ethynyl-estradiol, reference compound], the Ki on CYP3A4 [1] (human) came to 5.4 ± 2.5 µM.

On to `NNC(=O)c1ccncc1` [Isoniazid], for which, at CYP2C8 [2] (human), the Ki was 280 ± 40 µM and the kinact is 0.0006 s⁻¹.

As for `CC/C(=C(\c1ccccc1)c1ccc(OCCNC)cc1)c1ccccc1` [N-desmethy-ltamoxifen], the “kinact (min^−1), Literature” value at CYP3A4 [3] was 0.08 min⁻¹. In addition, the Ki at CYP3A4 [3] (read-out: KI (µM), Literature) was 2.6 µM; on CYP3A4 [1] (read-out: KI (µM), Reanalysis, CYP3A4, reanalysis of literature data (refs 37-39) with two-step fit of kobs vs [I]) it was 2.5 ± 1 µM. On CYP3A4 [1] (CYP3A4, reanalysis of literature data (refs 37-39) with two-step fit of kobs vs [I]), the “kinact (min^−1), Reanalysis” value was found to be 0.083 ± 0.007 min⁻¹.

For `CCN1C(=O)C=CC1=O` [NEM, N-ethylmaleimide, reference compound], the “rate constant, times lower than that of cysteine” value in [4] is on record as “more than 100 times”. For the same compound, at human HDAC8, the 50% inhibitory concentration (IC50) was 700 to 42000 nM, the “Binding / inhibition mechanism classification” value is “unspecific one-step affinity labeling; also recorded: slow inactivation behavior” and the kinact/KI stood at 133 ± 3 M⁻¹ s⁻¹. Besides, the “second-order rate constant for N-ethylmaleimide reaction with cysteine” value in [5] was 15,300 M^−1s^−1.

As to `CNCCC=C1c2ccccc2CCc2ccccc21` [Nortriptyine], the “kinact (min^−1), Reanalysis” value at CYP2C8 [2] (CYP2C8, reanalysis of literature data (ref 36) with two-step fit of kobs vs [I]) worked out at 0.044 ± 0.003 min⁻¹. In addition, the Ki was 66 ± 12 µM at CYP2C8 [2] (read-out: KI (µM), Reanalysis, CYP2C8, reanalysis of literature data (ref 36) with two-step fit of kobs vs [I]) and 49.9 µM on CYP2C8 [6] (read-out: KI (µM), Literature). The “kinact (min^−1), Literature” value on CYP2C8 [6] is 0.036 min⁻¹.

Regarding `N=C1Sc2ccccc2C2=NCCCN12` [P2742], the IC50 in the series on HDAC8 [7] (literature value ref 47) is […].

With `COc1ccc(Cn2ccc3ccc(C(=O)NO)cc32)cc1` [PCI-34051, reference compound], the “Binding / inhibition mechanism classification” value at human HDAC8 was “fast-reversible inhibitors”. Further, the IC50 in the series with HDAC8 [7] (literature value ref 43) was […].

Consider `NNCCc1ccccc1` [Phenelzine], for which, at CYP2C8 [2] (human), the Ki was found to be 0.84 ± 0.24 µM and the kinact is 0.0035 s⁻¹.

Consider `O=C(CCCCCCC(=O)Nc1ccccc1)NO` [SAHA, suberoylanilide hydroxamic acid, reference compound], for which, at human HDAC8, the “Binding / inhibition mechanism classification” value is listed as “fast-reversible inhibitors”.

Take `O=C(CCCCCCC(=O)C(F)(F)F)Nc1ccccc1` [SATFMK]: the IC50 with HDAC8 [7] (literature value ref 42) was 0.021 µM. Also, at HDAC8 [8], the Kd was 5.6 nM.

For the compound `COC(=O)c1ccc(/C=C(\C#N)C(=O)C(F)(F)F)cc1` [SVE04], at human HDAC8, the IC50 was 4200 ± 1100 nM, the Ki worked out at 1300 nM and the “Binding / inhibition mechanism classification” value is reported as “fast reversible HDAC8 inhibitors; also recorded: fast reversible binding”.

Turning to `COc1ccc(CC(C#N)C(=O)O)cc1` (centres unmarked) [SVE27], on human HDAC8, the IC50 came to 2600 ± 400 nM, the Ki was found to be 800 nM and the “Binding / inhibition mechanism classification” value was “fast reversible HDAC8 inhibitors; also recorded: fast reversible binding”.

With `Cc1cc(C)cc(CSc2nc(Cl)ns2)c1` [TJ-19-24], on human HDAC8, the IC50 was 400 to 4000 nM; the Ki worked out at 5900 ± 800 nM; the “Binding / inhibition mechanism classification” value is listed as “slow two-step inactivators or reversible inhibitors, with a very low reverse isomerization rate; also recorded: slow covalent inactivator; also recorded: slow two-step inactivation”; the kinact is 1 min⁻¹. Besides, the kinact/KI on human HDAC8 worked out at 2820 M⁻¹ s⁻¹.

With `Cc1cc(C)cc(CS(=O)(=O)c2nc(Cl)ns2)c1` [TJ-19-28], on human HDAC8, the IC50 is 300 to 3000 nM, the Ki was 12000 ± 3000 nM, the “Binding / inhibition mechanism classification” value was “two-step inactivation mechanism; also recorded: irreversible inactivation mechanism” and the kinact is 1.8 min⁻¹. Further, the kinact/KI on human HDAC8 is 2500 M⁻¹ s⁻¹.

As to `CC(C)CN(C[C@@H](O)[C@H](Cc1ccccc1)NC(=O)O[C@H]1CO[C@H]2OCC[C@H]21)S(=O)(=O)c1ccc(N)cc1` [darunavir], the “residence time (RT)” value in the series with HIV protease is given as 247 h.

On to `CC(C)(C)NC(=O)[C@@H]1CN(Cc2cccnc2)CCN1C[C@@H](O)C[C@@H](Cc1ccccc1)C(=O)N[C@H]1c2ccccc2C[C@H]1O` [indinavir], for which the “residence time (RT)” value with HIV protease is given as 0.3 h.
